According to patent US20030208035A1, “Antifungal and/or antibacterial peptides, preparation methods, compositions containing same and methods of treating mammals and/or plants” (priority 2000, published 2003):
Bridges are numbered along the chain shown (N, C = ends). Where no end group is shown, it is not given here.

What was measured:
C. albicans = assay type: cell-based, Candida albicans; conditions: 24 h
Procedure: (§1) Candida yeasts (C. albicans, C. glabrata, C. dubliensis, C. tropicalis, C. kefyr, C. krusei and C. parapsilosis—donated by Dr. H. Koenig, Hôpital Civil, Strasbourg), fluconazole-resistant C. albicans (n^o245962, n^o2332, n^o246335 and n^o3552, donated by Drs. J.Meis and J. Mouton, University Hospital, Microbiology Department, Nijmegen, Netherlands), and Cryptoccocus neoformans (donated by Dr. H. Koenig, Hôpital Civil, Strasbourg) were seeded on Sabouraud-Cloramphenicol Agar slant gelose (Biomerieux) and left to incubate for 24 h at 30° C. (Candida sp.) and for 72 h at 37° C. (Cryptoccocus neoformans).
(§2) Some yeast colonies were placed in suspension in liquid Sabouraud medium (Biomerieux) to obtain a final concentration of 0.1 OD at 600 nm corresponding to 2.5.10^6 yeasts/ml.
(§3) The yeast suspension was adjusted to 5.10^3 yeast/ml in Sabouraud medium.
(§4) 100 μl of peptide dilutions (concentration of 50 with 0.097 μg/ml peptide) were deposited in microtitration plates. After adding […] of yeast suspension with 5.10^3 yeast/ml i.e. 500 yeasts, the test plates were incubated 24 h at 30° C. (Candida) under slow shaking or 72 h at 37° C. (Cryptoccocus).
(§5) Determination of minimal inhibiting concentrations (MIC) was made by measuring absorbency at 600 nm using a spectrophotometer-microtitration plate reader. The MIC score was set at a growth inhibition rate of 50%.

[1] = test system: fluconazole-resistant C. albicans; assay: microbe, parasite or virus in culture; assay type: cell-based, Candida albicans; conditions: fluconazole-resistant
Procedure: as §1, §2, §3, §4, §5

DKLIGSCVWGAVNYTSNCNAECKRRGYKGGHCGSFLNVNCWCET (disulfide 7-32, 18-40, 22-42 (inferred)) [pEM35]
MIC (C. albicans): 1.56 µg/mL

DKLIGSCVWGAVNYTSNCRAECKRRGYKGGHCGSFANVNCWCET (disulfide 7-32, 18-40, 22-42 (inferred)) [pEM51]
MIC [1]: 1.56 µg/mL
